From article PMC10644327, “A randomized, double‐blind phase 1b study evaluating the safety, tolerability, pharmacokinetics and pharmacodynamics of the NLRP3 inhibitor selnoflast in patients with moderate to severe active ulcerative colitis” (Clinical and Translational Medicine, 2023)
≈ marks a conversion by molar mass, not a printed value. Like-named read-outs stand apart in the source and are kept apart here.

Tests used:
[1] = Selnoflast plasma pharmacokinetics in UC patients (LC‐MS/MS, non‐compartmental); type: in vivo, human; conditions: for Tmax / concentration at 24 h / Cmax / half-life / AUC: 450 mg; for concentration at 24 h: read-out: Ctrough
Experimental: Selnoflast (450 mg QD or matching placebo) was administered orally in the morning following an overnight fast of at least 8 h during the patients’ 7‐day clinic stay. Water intake was restricted for 1 h pre‐dose and 1 h post‐dose, and no food was allowed until at least 4 h post‐dose.
The concentrations of selnoflast were determined in a total of 260 human plasma samples (obtained during the study) using a validated liquid chromatography‐tandem mass spectrometry (LC‐MS/MS) method. Sample analysis was performed after the addition of the internal standard by protein precipitation followed by LC‐MS/MS. The calibration range was between 40.0 ng/mL and 40000.0 ng/mL; the lower limit of quantification in human plasma was 40.0 ng/mL. Study samples were analyzed within the validated frozen storage stability timeframe of 371 days at −20°C and −70°C, the five validated freeze/thaw cycles, and proven room temperature storage stability of 24 h, in a total of six analytical runs. Five out of six runs met the acceptance criteria. The precision and accuracy (expressed as %RE) of the assay, as determined from the analysis of quality control samples, was satisfactory throughout the study.
All randomized patients were included in the intent‑to‑treat population. All patients completed all doses of study treatment and all were included in the safety, PK and PD analyses. Safety data were grouped according to treatment received and were tabulated and/or listed, as appropriate. PK parameters (including Tmax, Cmax, Ctrough, total exposure, drug accumulation, clearance, volume of distribution and T1/2) were extrapolated directly from the plasma concentration‐versus‐time profiles or calculated using standard non‐compartmental methods. PK and PD parameters were summarized and presented descriptively.

IL‐1β = IL‐1β IC90 calculated from in vitro studies; type: cell-based; conditions: estimated
[2] = cited from earlier work; for Tolerability: healthy subjects, single doses 20-600 mg and multiple doses up to 450 mg QD for 7 days, ref unpublished results, study IZD334-001
[3] = set-up: method as in Investigator Brochure; conditions: ref Investigator Brochure, cited from earlier work
AIM2 = tested on: AIM2; set-up: method as in unpublished results; conditions: ref unpublished results; cited from earlier work
[4] = set-up: method as in Investigator Brochure; conditions: ref Investigator Brochure, cited from earlier work; remark: listed apart in the source
[5] = set-up: method as in Investigator Brochure; conditions: ref Investigator Brochure, cited from earlier work; remark: listed apart in the source
IL‐18 = experiment: Plasma IL‐18 (SIMOA) in UC patients; type: in vivo, human; conditions: 450 mg QD, 7 days
Experimental: Blood samples were drawn pre‐dose and at various timepoints and placed in TruCulture whole blood collection and culture tubes that were pre‐filled with lipopolysaccharide (LPS) (final working concentration of 100 ng/mL LPS after addition of 1 mL of blood to the LPS‐containing Truculture tubes). Following 24 h incubation, TruCulture supernatants were collected, stored, and levels of secreted IL‐1β were subsequently measured in order to understand how these responded to NLRP3 inhibition by selnoflast. The levels of IL‐1β were also quantified in plasma K2EDTA samples using the same SIMOA IL‐1β Assay Kit (Quanterix). The quantitative range of the method was 0.196 to 490 pg/mL for plasma and 4.01 to 1470 pg/mL in Truculture supernatants. Plasma samples were also assessed for IL‐18, using a commercial SIMOA IL‐18 Assay Kit (Quanterix; the quantitative range for plasma was 0.0200–45.0 pg/mL).

NLRP3 inflammasome = tested on: NLRP3 inflammasome; set-up: method as in RO7486967 Investigator Brochure; conditions: ref RO7486967 Investigator Brochure; cited from earlier work
[6] = tested on: IL‐1β release in activated human monocyte‐derived macrophages; set-up: method as in unpublished results; conditions: in vitro, ref unpublished results; cited from earlier work
NLRC4 = tested on: NLRC4; set-up: method as in unpublished results; conditions: ref unpublished results; cited from earlier work
sigmoid colon tissue = experiment: Histology of sigmoid colon biopsies (Geboes score, Nancy index, neutrophils); type: in vivo, human
Experimental: Tissue biopsies from the sigmoid colon were obtained before start of treatment (up to Day −3) and at the end of treatment (Day 7). For operational reasons, biopsies were taken 2−4.5 h post‐dose on Day 7. Stool samples were obtained at screening, before start of treatment, throughout the study, and at the 14‐day follow‐up visit. Levels of calprotectin were determined in stool samples. Sigmoid colon tissue was processed for RNA and DNA extraction as well as for single‐cell analysis, subsequent transcriptomic analysis, and identification of PD biomarkers. Sigmoid colon tissue samples were also processed for histology (hematoxylin and eosin staining, immunohistochemistry, fluorescence in situ hybridization) in order to characterize the cell types present (i.e., neutrophils and inflammatory monocytes). Histological analysis was performed on sigmoid colon tissue samples (from baseline and Day 7) using the disease‐specific histological indices Geboes score[23] and Nancy index.[24] Caspase‐1 (pro and active form) was assessed using a validated WES‐assay (manuscript in preparation).

[7] = 450 mg QD repeat dosing, UC patients
[8] = human, plasma, po, 450 mg QD oral, fasted, UC patients N = 13, Day 1, geometric mean (CV% geo mean)
[9] = human, plasma, po, 450 mg QD oral, fasted, UC patients N = 13, steady‐state (Day 5), geometric mean (CV% geo mean)

Q: For `CCN1CCC(S(=O)(=O)NC(=O)Nc2c3c(cc4c2CCC4)CCC3)CC1` [Selnoflast, selnoflast], which Ctrough ([1]; 450 mg QD oral, fasted, UC patients N = 13, Day 1 (Clast, 24 h), geometric mean (CV% geo mean)) is on record?
A: 2.55 (38.8) μg/mL

Q: And the CL/F ([1]; 450 mg QD oral, fasted, UC patients N = 13, Day 1, geometric mean (CV% geo mean))?
A: 1.82 (17.5) L/h

Q: What about the Ctrough ([1]; 450 mg QD oral, fasted, UC patients N = 13, steady‐state (Day 5) (Clast, 24 h), geometric mean (CV% geo mean)) of the same compound?
A: 2.66 (46.6) μg/mL

Q: What about the CL/F ([1]; 450 mg QD oral, fasted, UC patients N = 13, steady‐state (Day 5), geometric mean (CV% geo mean)) of the same compound?
A: 1.68 (21.0) L/h

Q: And the “Accumulation: increase in AUCtau from Day 1 to Day 5” value [1, 7]?
A: 8.6%

Q: What about the “Accumulation: increase in Clast from Day 1 to Day 5” value [1, 7] of the same compound?
A: 4.3%

Q: What about the “Accumulation: increase in Cmax from Day 1 to Day 5” value [1, 7] of the same compound?
A: 17%

Q: What about the “Steady‐state achieved” value ([1]; 450 mg QD, UC patients) of the same compound?
A: Day 2

Q: What about the Tmax ([1]; human, plasma, oral, UC patients in the present study, read-out: Median Tmax) of the same compound?
A: 1 to 2 h

Q: And the concentration at 24 h ([1]; human, plasma, po, 450 mg QD oral, fasted, UC patients N = 13, Day 1 (Clast, 24 h), geometric mean (CV% geo mean))?
A: 2550 ng/mL

Q: What about the Cmax [1, 8] of the same compound?
A: 25000 ng/mL

Q: What about the half-life [1, 8] of the same compound?
A: 6.9 h

Q: And the AUC ([1]; human, plasma, po, 450 mg QD oral, fasted, UC patients N = 13, Day 1, geometric mean (CV% geo mean), read-out: AUC0‐inf)?
A: 275 µg·h/mL

Q: What about the AUC ([1]; human, plasma, po, 450 mg QD oral, fasted, UC patients N = 13, Day 1, geometric mean (CV% geo mean), read-out: AUCtau) of the same compound?
A: 247 µg·h/mL

Q: What about the Tmax ([1]; human, plasma, po, 450 mg QD oral, fasted, UC patients N = 13, Day 1, median (range), read-out: Tmax) of the same compound?
A: 1.97 h

Q: What about the concentration at 24 h ([1]; human, plasma, po, 450 mg QD oral, fasted, UC patients N = 13, steady‐state (Day 5) (Clast, 24 h), geometric mean (CV% geo mean)) of the same compound?
A: 2660 ng/mL

Q: And the Cmax [1, 9]?
A: 29300 ng/mL

Q: And the half-life [1, 9]?
A: 6.93 h

Q: And the AUC ([1]; human, plasma, po, 450 mg QD oral, fasted, UC patients N = 13, steady‐state (Day 5), geometric mean (CV% geo mean), read-out: AUCtau)?
A: 268 µg·h/mL

Q: What about the Tmax ([1]; human, plasma, po, 450 mg QD oral, fasted, UC patients N = 13, steady‐state (Day 5), median (range), read-out: Tmax) of the same compound?
A: 1 h

Q: And the Vd/F ([1]; human, plasma, 450 mg QD oral, fasted, UC patients N = 13, Day 1, geometric mean (CV% geo mean), read-out: Vz/F)?
A: 18.1 L

Q: What about the “IL‐1β IC90 (tissue)” value (IL‐1β) of the same compound?
A: 1.94 µg/g

Q: What about the IC90 (IL‐1β; read-out: IL‐1β IC90 (plasma)) of the same compound?
A: 2 µg/mL (≈ 5.11 µM)

Q: And the “Bacterial, viral, fungal, and other opportunistic infections” value (shortened to “Bacterial, viral, fungal”) ([2]; HVs in the Phase I clinical study, ref Investigator Brochure)?
A: No evidence

Q: What about the “Healthy volunteers with mild transaminase increase” value ([2]; MAD part, volunteers who received RO7486967, no clear dose dependency, not clinically significant, ref Study IZD334-001) of the same compound?
A: 4 out of 18

Q: And the Tolerability [2]?
A: well tolerated

Q: And the Tolerability ([2]; listed as RO7486967)?
A: safe and well tolerated

Q: And the “Potential to cause direct hepatotoxicity” value ([3]; at therapeutically relevant concentrations, based on in vitro assessments)?
A: low

Q: And the Mitochondrial toxicity ([3]; in vitro)?
A: did not show mitochondrial toxicity

Q: And the “Inhibitory activity on AIM2 inflammasome” value (AIM2)?
A: no inhibitory activity

Q: What about the Signs of hepatotoxicity ([4]; 26-week GLP study, rat) of the same compound?
A: no signs of hepatotoxicity

Q: And the “Bacterial, viral, fungal” value ([4]; rats, nonclinical toxicology studies)?
A: No evidence

Q: What about the Signs of hepatotoxicity ([5]; 39-week GLP study, monkey) of the same compound?
A: no signs of hepatotoxicity

Q: What about the “Bacterial, viral, fungal” value ([5]; monkeys, nonclinical toxicology studies) of the same compound?
A: No evidence

Q: And the “Change in plasma IL‐18 levels upon treatment” value (IL‐18)?
A: no significant changes

Q: What about the “Effect on IL-1β release and cell death in vitro” value (NLRP3 inflammasome) of the same compound?
A: inhibit IL-1β release and cell death in vitro

Q: And the “Inhibition of IL‐1β release” value [6]?
A: potent inhibitor

Q: What about the “Inhibitory activity on NLRC4 inflammasome” value (NLRC4) of the same compound?
A: no inhibitory activity

Q: What about the “Geboes score and Nancy index, difference between study arms” value (sigmoid colon tissue; baseline and Day 7) of the same compound?
A: No notable differences

Q: What about the “Neutrophils in sigmoid colon tissue, change from baseline” value (sigmoid colon tissue; mean (± SD), active treatment arm, Day 7) of the same compound?
A: −13.23 (± 140.76) cells/mm^2

Q: And the “Patients with marked reduction from baseline in neutrophils in sigmoid colon tissue” value (sigmoid colon tissue; selnoflast‐treated patients, Day 7)?
A: Three out of the 13
